The source of these data is patent US20250122520A1, “Application of OBF1 Transcription Factor in Chromosome Doubling of Plant and Transgenic Plant Cultivation Method” (JIANGSU ACADEMY OF AGRICULTURAL SCIENCES, priority 2023, published 2025).

Format in all cases: in vivo
For one assay, the system named is tobaccoes. The assay can be described thus: Ploidy identification by flow cytometer of OBF1 over-expressing tobaccoes screened with kanamycin. The note with it: tobacco; for Proportion of chromosome doubling: OBF1 over-expression. How it is done: (5) The leaves were transferred to a screening culture medium with corresponding screening resistance; the culture medium was replaced every two to three weeks, and the leaves waited for differentiation.
(8) The ploidy of the plants was identified by a flow cytometer, the doubling ratio of the plants under different screening concentrations of kanamycin was calculated, and the results are shown in Table 6 and FIGS. 14A-14B.

The test system of the next assay is petunia. The experiment in a line: Ploidy identification by flow cytometer of OBF1 over-expressing petunias screened with kanamycin. The note with it: for Proportion of chromosome doubling: OBF1 over-expression. How it is done:
(9) Two days later, the leaves were transferred to a regeneration culture medium with corresponding screening resistance, the culture medium was replaced every two to three weeks, and the leaves waited for differentiation.
(14) The ploidy of the plants was identified by a flow cytometer, a doubling ratio of the plants under different treatment concentrations of kanamycin was calculated, and the results are shown in Table 2 and FIGS. 10A-10C.

The test system of a further assay is tomatoes. The experiment in a line: Ploidy identification by flow cytometer of OBF1 over-expressing tomatoes screened with kanamycin. Particulars: tomato; for Proportion of chromosome doubling: OBF1 over-expression. How it is done:
(5) The explants were transferred and placed into the screening culture medium; the photoperiod was 18/6 h, the temperature was 22-25° C., the humidity was 60%, and concentration settings of kanamycin and compositions of culture media were shown in Table 3;
(6) The ploidy of the plants was identified by a flow cytometer, the doubling ratio of the plants under different screening concentrations of kanamycin was calculated, and the results are shown in Table 4 and FIGS. 12A-12B.

Take `NC[C@H]1O[C@H](O[C@H]2[C@H](O)[C@@H](O[C@H]3O[C@H](CO)[C@@H](O)[C@H](N)[C@H]3O)[C@H](N)C[C@@H]2N)[C@H](O)[C@@H](O)[C@@H]1O` [kanamycin]: the “Proportion of chromosome doubling” value is 0% with tobaccoes (kanamycin 50 mg/mL); 33.3% with tobaccoes (kanamycin 100 mg/mL); 0% with petunia (kanamycin 50 mg/L); 63.6% in the assay on petunia (kanamycin 100 mg/L); 80% in the assay with petunia (kanamycin 150 mg/L); 0% in the assay on tomatoes (kanamycin 50 mg/mL). Further, in the assay with tomatoes (kanamycin 100 mg/mL), the “Proportion of chromosome doubling” value is recorded as 60%. Further, the Chromosome-doubled plant in the assay on tobaccoes (kanamycin 50 mg/mL, of 10 transgenic plants) turned out to be 0 plant; with tobaccoes (kanamycin 100 mg/mL, of 20 transgenic plants), 6 plant; with petunia (kanamycin 50 mg/L, of 27 transgenic plants), 0 plant; in the assay with petunia (kanamycin 100 mg/L, of 22 transgenic plants), 14 plant; with petunia (kanamycin 150 mg/L, of 6 transgenic plants), 4 plant; in the assay on tomatoes (kanamycin 50 mg/mL, of 30 transgenic plants), 0 plant. This molecule also returned a Chromosome-doubled plant in the assay on tomatoes (kanamycin 100 mg/mL, of 10 transgenic plants) of 6 plant.
